What was measured:
MDA-MB-453 [1] = assay: drug sensitivity score (DSS), in combination with BLU9931 (DSS (weighted AUC score)); higher = more sensitive (stronger viability decrease); extreme values may be limits of the assay; conditions: BLU9931 100 nM; 72 h
Summary of the method: (§1)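 Compounds from the FIMM Oncology set were predispensed in singlicate at five 10-fold dilutions (10,000-fold range) on 384-well plates. Each well then received 2000 MDA-MB-453 cells in medium with or without an FGFR4 inhibitor (100 nM final) and was kept at 37 °C, 5% CO2. Cellular ATP was read with CellTiterGlo 2.0 after 72 h and normalised per plate to percent viability from control wells. The drug sensitivity score is a weighted area under a four-parameter logistic fit.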

MDA-MB-453 [2] = assay: drug sensitivity score (DSS), single agent (DSS (weighted AUC score)); higher = more sensitive (stronger viability decrease); extreme values may be limits of the assay; conditions: BLU9931 0 nM; 72 h
Summary of the method: as §1

| Compound | drug sensitivity score (MDA-MB-453 [1]) | drug sensitivity score (MDA-MB-453 [2]) |
| --- | --- | --- |
| NC(=O)N1CCC(CC(=O)N2CCC([C@H]3c4ncc(Br)cc4CCc4cc(Cl)cc(Br)c43)CC2)CC1 [Lonafarnib] | 0 | 0 |
| C[C@H]1O[C@@H](O[C@H]2[C@@H](O)C[C@H](O[C@H]3[C@@H](O)C[C@H](O[C@H]4CC[C@@]5(C)[C@H](CC[C@@H]6[C@@H]5C[C@@H](O)[C@]5(C)[C@@H](C7=CC(=O)OC7)CC[C@]65O)C4)O[C@@H]3C)O[C@@H]2C)C[C@H](O)[C@@H]1O [Digoxin] | 10.6 | 8.2 |
| CC(C)[C@@H](CS(=O)(=O)C(C)C)N1C(=O)[C@@](C)(CC(=O)O)C[C@H](c2cccc(Cl)c2)[C@H]1c1ccc(Cl)cc1 [AMG-232] | 0 | 0.2 |
| Nc1nc2[nH]cnc2c(=S)[nH]1 [Thioguanine] | 5.9 | 10.4 |
| Cn1cc(C[C@@H](N)C(=O)O)c2ccccc21 [1-methyl-D-tryptophan] | 0 | 0.2 |
| O=C(Nc1cc(Oc2cc(F)c(NC(=O)C3(C(=O)Nc4ccc(F)cc4)CC3)cc2F)ccn1)C1CC1 [Altiratinib] | 3.5 | 7.1 |
| CC(C)(O)CC(=O)NCCn1ccc2ncnc(Nc3ccc(Oc4cccc(C(F)(F)F)c4)c(Cl)c3)c21 [TAK-285] | 6.4 | 5.4 |
| CC(C)[C@H]1C(=O)N[C@@H](CCCNC(=N)N)C(=O)NCC(=O)N[C@@H](CC(=O)O)C(=O)N[C@H](Cc2ccccc2)C(=O)N1C [Cilengitide] | 0 | 0 |
| COc1ccc(CCc2nc3cc(-c4c(C)noc4C)ccc3n2C[C@H](C)N2CCOCC2)cc1Cl [SGC-CBP30] | 9.1 | 9 |
| Cn1cncc1[C@@](N)(c1ccc(Cl)cc1)c1ccc2c(c1)c(-c1cccc(Cl)c1)cc(=O)n2C [Tipifarnib] | 4.1 | 8.3 |
| CN(C)Cc1ccc(S(=O)(=O)n2ccc(/C=C/C(=O)NO)c2)cc1 [Resminostat] | 16.2 | 16 |
| C[C@@H]1CN(CC(=O)Nc2ccc3c(c2)Cc2cccc(-c4cc(=O)cc(N5CCOCC5)o4)c2S3)C[C@H](C)O1 | 3.4 | 3.1 |
| CCOc1ccn(-c2ccc(F)cc2)c(=O)c1C(=O)Nc1ccc(Oc2ccnc(N)c2Cl)c(F)c1 | 0 | 0 |
| COc1cc2ncnc(Nc3ccc(F)c(Cl)c3)c2cc1OCCCN1CCOCC1 [Gefitinib] | 8 | 6.9 |
| Clc1ccc(Nc2nnc(Cc3ccncc3)c3ccccc23)cc1 [Vatalanib] | 0.3 | 0.8 |
| O=C(O)c1ccc(CN2CCC(CN[C@@H]3C[C@H]3c3ccccc3)CC2)cc1 | 0 | 0.3 |
| Cc1ccc(C(=O)Nc2ccc(Oc3cc4cnn(C)c4cc3-c3cn[nH]c3)c(F)c2)c(=O)n1-c1ccc(F)cc1 [Merestinib] | 0 | 0 |
| CC(C)c1c(C(=O)Nc2ccccc2)c(-c2ccccc2)c(-c2ccc(F)cc2)n1CC[C@@H](O)C[C@@H](O)CC(=O)O [Atorvastatin] | 0 | 0 |
| CC(C)(C)C[C@@H]1N[C@@H](C(=O)N[C@H]2CC[C@H](O)CC2)[C@H](c2cccc(Cl)c2F)[C@]12C(=O)Nc1cc(Cl)ccc12 | 0 | 0.9 |
| CCCCOc1nc(N)c2c(n1)N(Cc1cccc(CN3CCCC3)c1)CC(=O)N2 [Vesatolimod] | 0 | 3 |
| Cc1nc(=O)c2cc(CN(C)c3ccc(C(=O)N[C@@H](CCC(=O)O)C(=O)O)s3)ccc2[nH]1 [Raltitrexed] | 3.2 | 5.3 |
| CCOc1cc2ncc(C#N)c(Nc3ccc(OCc4ccccn4)c(Cl)c3)c2cc1NC(=O)/C=C/CN(C)C [Neratinib] | 17.9 | 15.4 |
| O=C(Nc1ccncc1)C(=O)c1cn(Cc2ccc(Cl)cc2)c2ccccc12 [Indibulin] | 5.3 | 9.1 |
| CC/C(=C(\c1ccccc1)c1ccc(OCCN(C)C)cc1)c1ccccc1 [Tamoxifen] | 2.4 | 5.3 |
| COCC[n+]1c2c(n(Cc3cnccn3)c1C)C(=O)c1ccccc1C2=O [Sepantronium bromide] | 33.2 | 32.9 |
| COc1cc2c(cc1-c1c(C)noc1C)ncc1[nH]c(=O)n([C@H](C)c3ccccn3)c12 [I-BET151] | 11.4 | 11.5 |
| COc1cc(N2CCC(N3CCN(C)CC3)CC2)ccc1Nc1ncc(Cl)c(Nc2ccccc2P(C)(C)=O)n1 [Brigatinib] | 2 | 2.4 |
| COc1cc2c(Nc3ccc(Cl)c(Cl)c3F)ncnc2cc1OC[C@@H]1C[C@@H]2CN(C)C[C@@H]2C1 [Tesevatinib] | 11.5 | 7.6 |

Reference: the supplement of paper PMC7224384
